The source of these data is the Kinase Knowledgebase extract (Sharma et al. 2016).

As usually defined, the IC50 is the concentration that gives 50% inhibition. Higher therefore signals weaker potency in that assay.

In brackets after ≈: the same amount, converted by molar mass.

In the first assay the target is EGFR (UniProt P00533).
EGFR, sequence (P00533 whole entry, looked up): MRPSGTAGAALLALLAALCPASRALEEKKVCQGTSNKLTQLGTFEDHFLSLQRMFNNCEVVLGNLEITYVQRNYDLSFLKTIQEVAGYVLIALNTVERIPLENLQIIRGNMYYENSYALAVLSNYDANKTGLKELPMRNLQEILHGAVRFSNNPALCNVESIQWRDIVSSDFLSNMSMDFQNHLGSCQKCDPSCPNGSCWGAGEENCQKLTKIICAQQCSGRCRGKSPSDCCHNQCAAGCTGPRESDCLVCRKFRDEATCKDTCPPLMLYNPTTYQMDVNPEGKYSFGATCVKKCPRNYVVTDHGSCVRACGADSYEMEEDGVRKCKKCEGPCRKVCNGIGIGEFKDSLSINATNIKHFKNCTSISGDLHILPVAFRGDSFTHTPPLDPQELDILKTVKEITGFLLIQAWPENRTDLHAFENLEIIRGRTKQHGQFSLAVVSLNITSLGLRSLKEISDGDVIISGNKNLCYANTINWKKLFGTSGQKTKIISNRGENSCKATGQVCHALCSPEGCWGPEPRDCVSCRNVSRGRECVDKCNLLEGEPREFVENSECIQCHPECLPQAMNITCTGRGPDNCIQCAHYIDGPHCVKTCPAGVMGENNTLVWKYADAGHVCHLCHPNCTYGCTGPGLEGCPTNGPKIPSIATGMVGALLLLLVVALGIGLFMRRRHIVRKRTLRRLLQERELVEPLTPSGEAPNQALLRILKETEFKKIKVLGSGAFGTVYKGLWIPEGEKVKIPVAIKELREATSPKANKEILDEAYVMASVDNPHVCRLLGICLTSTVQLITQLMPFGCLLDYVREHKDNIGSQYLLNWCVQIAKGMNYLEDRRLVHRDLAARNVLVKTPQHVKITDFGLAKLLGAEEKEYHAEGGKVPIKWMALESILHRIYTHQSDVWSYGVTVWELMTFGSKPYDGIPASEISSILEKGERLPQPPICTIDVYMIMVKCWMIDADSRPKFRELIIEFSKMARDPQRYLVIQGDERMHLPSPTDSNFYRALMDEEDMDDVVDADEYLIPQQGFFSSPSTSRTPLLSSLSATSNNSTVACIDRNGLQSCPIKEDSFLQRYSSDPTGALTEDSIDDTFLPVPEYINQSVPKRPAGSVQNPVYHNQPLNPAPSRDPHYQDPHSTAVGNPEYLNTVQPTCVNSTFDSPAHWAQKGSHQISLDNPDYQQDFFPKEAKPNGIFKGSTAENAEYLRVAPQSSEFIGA
Conditions: not given
`CCOc1cc2ncc(C#N)c(Nc3ccc(OCc4cccc(F)c4)c(Cl)c3)c2cc1NC(=O)/C=C/CN(C)C` had an IC50 of 0.019 mg/L (≈ 0.0331 µM).
Still for that read-out and setting: in the case of `CCOc1cc2ncc(C#N)c(Nc3ccc(OCc4ccccc4)c(Cl)c3)c2cc1NC(=O)/C=C/CN(C)C` it was 0.028 mg/L (≈ 0.0504 µM).

In a further assay the target is EGFR (human) (UniProt P00533). The following applies: a431.
EGFR (human), sequence (P00533 whole entry, looked up): as above
For `COc1cc2ncc(C#N)c(Nc3ccc(-n4ccnc4)c(Cl)c3)c2cc1[N+](=O)[O-]`, the IC50 came out at 1.79 mg/L (≈ 4.25 µM).
`COc1cc2ncc(C#N)c(Nc3ccc(Sc4nc5ccccc5c(=O)[nH]4)c(Cl)c3)c2cc1NC(=O)/C=C/CN(C)C`: the IC50 stood at 0.34 mg/L (≈ 0.555 µM).
Same read-out and setting: in the case of `COc1cc2ncc(C#N)c(Nc3ccc4cn[nH]c4c3)c2cc1OCCCN1CCOCC1` it was above 5 mg/L; in that of `CCOc1cc2ncc(C#N)c(Nc3ccc(Sc4nc(C)cc(C)n4)c(Cl)c3)c2cc1[N+](=O)[O-]`, above 5 mg/L; in that of `COc1cc2ncc(C#N)c(Nc3ccc(Sc4nccs4)c(Cl)c3)c2cc1N`, 0.663 mg/L (≈ 1.51 µM).
In turn, `COc1cc2ncc(C#N)c(Nc3ccc(N(c4ccc(N(Cc5cccnc5)C(C)=O)c(Cl)c4)c4c(OC)cnc5ccccc45)c(Cl)c3)c2cc1N` registered an IC50 above 5 mg/L.
As for `COc1cc2ncc(C#N)c(Nc3ccc(NCc4cccnc4)c(Cl)c3)c2cc1[N+](=O)[O-]`, the IC50 was 1.6 mg/L (≈ 3.47 µM).
Compound `CCOc1cc2ncc(C#N)c(Nc3ccc(Sc4nc(-c5ccccc5)cs4)c(C(F)(F)F)c3)c2cc1[N+](=O)[O-]` displayed an IC50 of 0.76 mg/L (≈ 1.28 µM).
`COc1cc2ncc(C#N)c(Nc3ccc(Sc4nc5ccccc5c(=O)[nH]4)c(Cl)c3)c2cc1N` displayed a 50% inhibitory concentration (IC50) of 1.22 mg/L (≈ 2.44 µM).
On the same count and under the same terms, in the case of `COc1cc2c(Nc3ccc(Sc4nccn4C)c(Cl)c3)c(C#N)cnc2cc1OCCCn1ccnn1` it was 1.83 mg/L (≈ 3.35 µM); in that of `CCOc1cc2ncc(C#N)c(Nc3ccc4c(c3)CCC4)c2cc1OCC`, 0.342 mg/L (≈ 0.916 µM).
In turn, `COCCN(C)C/C=C/C(=O)Nc1cc2c(Nc3ccc(Sc4nccs4)c(Cl)c3)c(C#N)cnc2cc1OC` gave an IC50 of 0.03 mg/L (≈ 0.0504 µM).
`CCOc1cc2ncc(C#N)c(Nc3ccc(Cn4ccnc4)c(Cl)c3)c2cc1NC(=O)/C=C/CN(C)C`: the IC50 was 0.95 mg/L (≈ 1.79 µM).
Consider `COc1cc2ncc(C#N)c(Nc3ccc(Sc4nccs4)c(Cl)c3)c2cc1NC(=O)/C=C/CN(C)C`, for which the IC50 was found to be 0.017 mg/L (≈ 0.0308 µM).
Same read-out and setting: the value for `CCOc1cc2ncc(C#N)c(Nc3ccc(Nc4nnc(C(F)(F)F)s4)c(Cl)c3)c2cc1N` was above 5 mg/L; that for `COCCOc1cc2ncc(C#N)c(Nc3ccc4cn[nH]c4c3)c2cc1OCCOC` was 1.96 mg/L (≈ 4.52 µM); that for `COc1cc2nc(Sc3ccc(Nc4c(C#N)cnc5cc(OC)c([N+](=O)[O-])cc45)cc3Cl)[nH]c(=O)c2cc1O` was 2.28 mg/L (≈ 3.95 µM).
As to `CCOc1cc2ncc(C#N)c(Nc3ccc(OCc4ccccc4)c(Cl)c3)c2cc1NC(=O)/C=C/CN(C)C`, the IC50 amounted to 0.062 mg/L (≈ 0.111 µM).
The same measure, in the same setting: the value for `C=CC(=O)Nc1ccc2ncc(C#N)c(Nc3ccc(Sc4nccn4C)c(Cl)c3)c2c1` was 0.62 mg/L (≈ 1.35 µM); that for `CCOc1cc2ncc(C#N)c(Nc3ccc4c(c3)OCCO4)c2cc1OCC` was 0.27 mg/L (≈ 0.69 µM); that for `CCOc1cc2ncc(C#N)c(Nc3ccc4c(c3)CCC4=O)c2cc1OCC` was 0.0181 mg/L (≈ 0.0467 µM).
The same measure, in the same setting: the value for `CCOc1cc2c(Nc3ccc4cn[nH]c4c3)c(C#N)cnc2cc1OC` was 0.786 mg/L (≈ 2.19 µM); that for `COc1cc2ncc(C#N)c(Nc3ccc(Sc4nccn4C)c(Cl)c3)c2cc1N` was 3.04 mg/L (≈ 6.96 µM).
Same read-out and setting: in the case of `COc1cc2ncc(C#N)c(Nc3ccc(Sc4nc(-c5ccccc5)cs4)c(Cl)c3)c2cc1NC(=O)/C=C/CN(C)C` it was 0.162 mg/L (≈ 0.258 µM); in that of `COc1cc2ncc(C#N)c(Nc3ccc(N(Cc4cccnc4)C(C)=O)c(Cl)c3)c2cc1NC(=O)/C=C/CN(C)C`, 0.646 mg/L (≈ 1.11 µM); in that of `CCOc1cc2ncc(C#N)c(Nc3ccc(Oc4ccncc4)c(Cl)c3)c2cc1[N+](=O)[O-]`, above 5 mg/L.
Consider `CCOc1cc2ncc(C#N)c(Nc3cc(Cl)c(Nc4nncs4)c(C(F)(F)F)c3)c2cc1[N+](=O)[O-]`, for which the IC50 stood at 1.79 mg/L (≈ 3.34 µM).
With `CCOc1cc2ncc(C#N)c(Nc3ccc(Sc4nccc(C)n4)c(Cl)c3)c2cc1[N+](=O)[O-]`, the IC50 came to 1.2 mg/L (≈ 2.43 µM).
In turn, `CCOc1cc2ncc(C#N)c(Nc3ccc(Sc4nccc(C)n4)c(Cl)c3)c2cc1N` showed an IC50 of 1.53 mg/L (≈ 3.3 µM).
Take `CCOc1cc2ncc(C#N)c(Nc3cc(Cl)c(Nc4nncs4)c(C(F)(F)F)c3)c2cc1NC(=O)/C=C/CN(C)C`: the IC50 turned out to be 0.728 mg/L (≈ 1.18 µM).
`CCOc1cc2ncc(C#N)c(Nc3ccc(Cn4ccnc4)c(Cl)c3)c2cc1N` returned an IC50 above 5 mg/L.
The same measure, in the same setting: the value for `COc1cc2ncc(C#N)c(Nc3ccc(Sc4nccs4)c(Cl)c3)c2cc1[N+](=O)[O-]` was 0.148 mg/L (≈ 0.315 µM); that for `CCOc1cc2ncc(C#N)c(Nc3ccc(Cn4ccnc4)c(Cl)c3)c2cc1[N+](=O)[O-]` was above 5 mg/L; that for `CCOc1cc2ncc(C#N)c(Nc3ccc(Sc4nc(C)cc(C)n4)c(Cl)c3)c2cc1N` was 0.76 mg/L (≈ 1.59 µM).
Consider `CCOc1cc2ncc(C#N)c(Nc3ccc4cc[nH]c4c3)c2cc1OCC`, for which the IC50 turned out to be 0.123 mg/L (≈ 0.33 µM).
Turning to `CCOc1cc2ncc(C#N)c(Nc3ccc(Sc4nc(-c5ccccc5)cs4)c(C(F)(F)F)c3)c2cc1N`, the IC50 was above 5 mg/L.
Compound `COc1cc2ncc(C#N)c(Nc3ccc(-n4ccnc4)c(Cl)c3)c2cc1NC(=O)/C=C/CN(C)C` showed an IC50 of 0.51 mg/L (≈ 1.02 µM).
Same read-out and setting: the value for `CCOc1cc2ncc(C#N)c(Nc3ccc(Oc4ccncc4)c(Cl)c3)c2cc1N` was above 5 mg/L; that for `CCOc1cc2ncc(C#N)c(Nc3ccc4cn[nH]c4c3)c2cc1OC` was 0.0368 mg/L (≈ 0.102 µM).
`COc1ccc2c(N(c3ccc(N(Cc4cccnc4)C(C)=O)c(Cl)c3)c3ccc(Nc4c(C#N)cnc5cc(OC)c(NC(C)=O)cc45)cc3Cl)c(C#N)cnc2c1` gave an IC50 of 3.68 mg/L (≈ 4.47 µM).
Same read-out and setting: in the case of `CCOc1cc2ncc(C#N)c(Nc3ccc(Sc4nc(C)cc(C)n4)c(Cl)c3)c2cc1NC(=O)/C=C/CN(C)C` it was 0.24 mg/L (≈ 0.408 µM); in that of `COc1cc2c(Nc3ccc(Sc4nccn4C)c(Cl)c3)c(C#N)cnc2cc1OCCCN1CCOCC1`, 0.775 mg/L (≈ 1.37 µM); in that of `CCOc1cc2ncc(C#N)c(Nc3ccc4c(c3)S(=O)(=O)C=C4)c2cc1OCC`, 0.257 mg/L (≈ 0.61 µM).
On the same count and under the same terms, the value for `COc1cc2ncc(C#N)c(Nc3ccc(Sc4nccn4C)c(Cl)c3)c2cc1[N+](=O)[O-]` was 2.88 mg/L (≈ 6.17 µM).
